The results in this text go back to patent US11325937B2, “Glycoside compound and preparation method therefor, composition, application, and intermediate” (SHANGHAI HUTCHISON PHARMACEUTICALS LIMITED, priority 2018, dated 2022).

Like-named read-outs stand apart in the source and are kept apart here.

Test [1] relates to rats with middle cerebral artery occlusion (MCAO). Nature of the test: Acute cerebral infarction model in rats with middle cerebral artery occlusion (MCAO). The test is classed as in vivo, male SD rats. The following applies: MCAO. An excerpt:
After obtaining the active molecules that can promote the expression of VEGF-A mRNA in the animal model of inflammatory angiogenesis, a rat model of cerebral infarction was used for further verification. Following the method as described in Longa, E. Z., Longa, E. Z., Weinstein, P. R., Carlson, S. & Commin, R. Reversible middle cerebral artery occlusion without craniectomy in rats. [J]. Stroke, 1989. 1: 84-91, an acute cerebral infarction model was established in rats with middle cerebral artery occlusion (MCAO); and following the method as described in C. dela Torre, T. Fortin, G. A. S. Park, K. S. Butler, P. Kozlowski, B. A. Pappas, H. de Socarraz, J. K. Saunders and M. T. Richard. [J]. Brain Research, 1992. 582:186-195, a chronic cerebral ischemia model was established in rats with permanent ligation of bilateral common carotid arteries (2VO). The inhibition on cerebral infarction and neuroprotection for brain injury of the active molecules screened in Effect Example 2 were verified.
The control drugs were: Edaravone (purchased from Zhejiang Shengtong Biotechnology Co., Ltd.), Clopidogrel bisulfate (purchased from Wuhan Yuancheng Gongchuang Technology Co., Ltd.), and Salvianolate (purchased from Henan Provincial People's Hospital). Clopidogrel bisulfate is a platelet aggregation inhibitor, and Edaravone is a brain protectant (free radical scavenger). The MCAO model of rats was made by the thread occlusion method. The rats used in this effect example were male SD rats weighing 280-320 grams, purchased from Shanghai SLAC Laboratory Animal Co., Ltd. Five SD (Sprague Dawley) rats in each group were administered by intraperitoneal injection, 2 h before surgery, and every 24 h after modeling.
Three days later, the brain was taken, and the rat brain was stained with TTC (2,3,5-triphenyltetrazolium chloride, to detect the cell viability) and then photographed. Infarction rate (%)=(Non-infarction area of right brain section−non-infarction area of left brain section)/total area of brain section*100%. According to t tests, *P<0.05, **P<0.01, ***P<0.001 compared with the model group (MCAO). Infarction inhibition rate (%) at different doses=(infarction rate of model group-infarction rate of treatment group)/infarction rate of model group*100%. The infarction inhibition rate at different doses was plotted, and the ED50 of the drug was calculated.
Moreover, the body weight of the rats was recorded. The rate of body weight change was calculated according to a formula: Rate of body weight change (%)=(final weight-initial weight)/[…].
Three days after the acute cerebral infarction model was established in rats with MCAO, the test rats were scored for neurological function according to the Longa nerve scoring standard.
Three days after the acute cerebral infarction model of MCAO was established in rats, the intact brain tissue was taken out, olfactory bulb and the brain tissue that is 4 mm in front of the frontal pole was removed, and the immediately adjacent brain tissue of 2 mm thick was taken for water content measurement in the brain. The water content in brain tissue is calculated by the formula: (WW−DW)/WW×100%, where WW is the wet weight and DW is the dry weight. Three days after the acute cerebral infarction model of MCAO was established in rats, the brain tissue was stained with Evans Blue (EB, a commonly used azo dye preparation) to evaluate the permeability across the blood-brain barrier (BBB), so as to evaluate the integrity of blood-brain barrier. Both experiments were tested with the optimal dose of each drug previously determined: TG-028 (5 mg/Kg), Salvianolate (20 mg/Kg), Clopidogrel bisulfate (40 mg/Kg), Edaravone (40 mg/Kg).

Test [2] deals with VEGF-A mRNA expression in macrophages (RAW264.7). Nature of the test: In vitro macrophage experiment: activity of compounds to promote VEGF-A mRNA expression (RT-qPCR). Type of test: cell-based. The following applies: Mus musculus, read-out: Expression level of VEGF-A mRNA; for fold induction at 4000 µM: 4 mM. The method in brief:
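RAW264.7 macrophages were exposed to test compounds at various concentrations for 3 h at 37° C. VEGF-A mRNA was measured by SYBR Green RT-qPCR, normalized to β-Actin, and expressed as 2^−ΔΔCt relative to untreated cells (=1). Activity is the maximal fold induction, with ≥4 as hit criterion.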

Another test deals with VEGF-A mRNA. The test can be described thus: Sponge implanted animal model of inflammatory angiogenesis: VEGF-A mRNA expression. Type of test: in vivo, male C57/BL6 mice. The settings on record: for activity in promoting VEGF-A mRNA expression compared with Salvianolate (in words): positive control Salvianolate 60 mg/kg/d, sponge implanted mice. The text has this: The target pro-angiogenic compounds TG-052, TG-053, TG-054, TG-028, and TG-055 obtained in Effect Example 1 that perform well at the cellular level were further screened for the active molecules that promote VEGF-A mRNA expression in the “sponge implanted animal model” of inflammatory angiogenesis. […] This model can well reflect the expression of VEGF-A mRNA in macrophages recruited around inflammation.
A sponge implanted mouse model was established following the method as described in Zhang J, Modi Y, and Yarovinsky T, et al. Macrophage β2 integrin-mediated, HuR-dependent stabilization of angiogenic factor-encoding mRNAs in inflammatory angiogenesis. [J]. American Journal of Pathology, 2012. 180(4): 1751-1760. The mice used in the present invention was male C57/BL6 mice aged 6-8 weeks and weighing 20-25 g, purchased from Shanghai SLAC Laboratory Animal Co., Ltd, Production License No: SCXK (Shanghai) 2013-0016. The compound screened in Effect Example 1 was weighed according to the amount intended to be used in two weeks, and then mixed with a gel matrix and a solvent to prepare a sustained-release gel of the compound (see Patent Application No.: CN201610168493.9 for the details of the preparation method of the sustained-release gel and the model establishment and detection methods). The specific steps were as follows. A certain amount of the compound obtained in Effect Example 1 was weighed into a 1.5 mL EP tube, and then a certain amount of poly-L-lactic acid (PLLA) with a weight average molecular weight of less than 10,000 was weighed and mixed with the compound (at a weight ratio of the compound to PLLA of 0.5:1 to 2:1). Finally a certain amount of DMSO (less than 100 microliters) was added, spun, mixed well, and then sealed with a sealing film. After continuous ultrasonication at 200 W and 25° C. for 5 h, a sustained-release gel of the compound was obtained, which was stored at 4° C. for later use.
The prepared sustained-release gel can release the drug completely within 2 weeks. The sustained-release gel and sponge were both subcutaneously implanted in the mice at the back. After 2 weeks, the sponge was taken out, and the residual tissue and fur were removed. The sponge was transferred to a cell culture plate containing 10 mL of DMEM medium containing collagenase (Collagenase:DMEM=10 mg/10 mL), cut, and incubated for 1 h in a cell incubator. Then the culture medium containing sponge debris was filtered, and the resulting filtrate was centrifuged. The supernatant was discarded, and 500 μL of Trizol reagent was added to the pellet, and mixed uniformly by blowing. Then the liquid was transferred to a 1.5 mL EP tube, and stored at −80° C. RNA was extracted according to a conventional method, and the RNA concentration was determined using a microvolume nucleic acid and protein analyzer (Nanodrop2000c). The required volume V of RNA was calculated according to the RNA concentration, and the RNA reverse transcription reaction system was prepared according to Table 1. Then RNA reverse transcription (cDNA synthesis) was carried out according to the conditions described in Table 2. The resulting cDNA was used to prepare a fluorescence quantitative qPCR reaction solution according to Table 3. The fluorescence quantitative qPCR reaction conditions were set according to Table 4, and the fluorescence quantitative PCR reaction was performed using cDNA from the reverse transcription reaction as a template. The relative expression level 2^−ΔΔCt of the target gene was calculated from the Ct value of each sample with the blank group as a control and β-Actin as an internal reference. The expression level of VEGF-A mRNA in the cells extracted from the sponge was observed after 2 weeks. […]

The mark [3] stands for this setting: 0.5 mM, RAW264.7 macrophages, 3 h, relative expression, no drug = 1.
Where [4] appears, read: 1 mM, RAW264.7 macrophages, 3 h, relative expression, no drug = 1.
The mark [5] stands for this setting: 2 mM, RAW264.7 macrophages, 3 h, relative expression, no drug = 1.
Where [6] appears, read: 3 mM, RAW264.7 macrophages, 3 h, relative expression, no drug = 1.
Setting [7] is: RAW264.7 macrophages, 3 h, relative expression, no drug = 1.
[8] abbreviates: 0.1 mM, RAW264.7 macrophages, 3 h, relative expression, no drug = 1.
The mark [9] stands for this setting: 1 μM, RAW264.7 macrophages, 3 h, relative expression 2^-ΔΔCt, no drug = 1.

Regarding `COC(=O)[C@H](c1ccccc1Cl)N1CCc2sccc2C1` [Clopidogrel bisulfate, reference compound], the ED50 – broadly, the dose that gives a 50% effect, or the effect in half of the subjects – in test [1] (Rattus norvegicus, ip, 72 h, intraperitoneal injection, TTC staining after 3 days, read-out: ED50 for infarction inhibition rate (%)) was found to be 28.1 mg/kg.

`COc1ccc(CCCO[C@@H]2O[C@H](CO)[C@@H](O)[C@H](O)[C@H]2O)cc1` [TG-054]: the fold induction at 500 µM in test [2] (setting [3]) came out at 3.63. Moreover, the fold induction at 1000 µM in test [2] (setting [4]) came to 12.4. Moreover, the fold induction at 2000 µM in test [2] (setting [5]) came out at 6.5. For the same molecule, the fold induction at 3000 µM in test [2] (setting [6]) was 1.21. In test [2] (setting [7]), the fold induction at 4000 µM is 2.01. For the same molecule, the “activity in promoting VEGF-A mRNA expression compared with Salvianolate (in words)” value (“activity … compared with Salvianolate (in words)” below) with VEGF-A mRNA (2 weeks) is reported as “slightly lower activity in promoting the VEGF-A mRNA expression”.

For the molecule `COc1cc(CCCCO[C@@H]2O[C@H](CO)[C@@H](O)[C@H](O)[C@H]2O)ccc1O` [TG-057], in test [1] (5 mg/kg, FIG. 20), the “Longa nerve scoring, protective effect on nerves (in words)” value is listed as “has a protective effect on nerves in rats after brain injury, but the effect is not as strong as that of TG-028” and the “effect of inhibiting cerebral infarction (in words)” value is listed as “has the effect of inhibiting cerebral infarction in the rats”.

As for `COc1ccc(CO[C@@H]2O[C@H](CO)[C@@H](O)[C@H](O)[C@H]2O)cc1` [TG-052], in test [2] (setting [3]), the fold induction at 500 µM came to 19.7. Moreover, in test [2] (setting [4]), the fold induction at 1000 µM came to 0.93. For the same molecule, the fold induction at 2000 µM in test [2] (setting [5]) was determined as 2.64. Further, the fold induction at 3000 µM in test [2] (setting [6]) stood at 2.69. The fold induction at 4000 µM in test [2] (setting [7]) came out at 3.51. Further, the “increase of expression level of VEGF-A mRNA compared with blank control without drugs” value in the test with VEGF-A mRNA (41.37 mg/kg/d, sustained-release gel, 2 weeks, mice) is recorded as “about 3 times”. In addition, the “activity … compared with Salvianolate (in words)” value with VEGF-A mRNA (2 weeks) is “comparable to that of Salvianolate”.

On to `OC[C@H]1O[C@@H](OCCc2ccc(O)cc2)[C@H](O)[C@@H](O)[C@@H]1O` [TG-056, salidroside, reference compound], for which the fold induction at 100 µM in test [2] (setting [8]) was 0.72. The fold induction at 500 µM in test [2] (setting [3]) came out at 1.74. In test [2] (setting [4]), the fold induction at 1000 µM stood at 2.24. The fold induction at 2000 µM in test [2] (setting [5]) was found to be 6.7. Besides, the fold induction at 3000 µM in test [2] (setting [6]) was determined as 2.31. Also, the “expression of VEGF-A mRNA (in words)” value in the test on VEGF-A mRNA (various doses, alone, FIG. 19) was “very low expression of VEGF-A mRNA”.

Regarding `COc1ccc(CCO[C@@H]2O[C@H](CO)[C@@H](O)[C@H](O)[C@H]2O)cc1` [TG-053], the fold induction at 500 µM in test [2] (setting [3]) was 11.2. Besides, in test [2] (setting [4]), the fold induction at 1000 µM turned out to be 13.4. Moreover, in test [2] (setting [5]), the fold induction at 2000 µM came out at 6.82. In addition, the fold induction at 3000 µM in test [2] (setting [6]) is 1.32. In addition, the fold induction at 4000 µM in test [2] (setting [7]) was 1.8. Also, the “activity … compared with Salvianolate (in words)” value in the test on VEGF-A mRNA (2 weeks) is listed as “slightly lower activity in promoting the VEGF-A mRNA expression”.

For `COCCOCCOCCOCCOc1ccc(CCCCO[C@@H]2O[C@H](CO)[C@@H](O)[C@H](O)[C@H]2O)cc1` [TG-044], in test [2] (setting [9]), the fold induction at 1 µM turned out to be 0.65. The fold induction at 100 µM in test [2] (setting [8]) stood at 1.18. For the same molecule, in test [2] (setting [3]), the fold induction at 500 µM was determined as 1.56. In addition, the fold induction at 1000 µM in test [2] (setting [4]) was 1.04. Further, the fold induction at 2000 µM in test [2] (setting [5]) was determined as 0.79. For the same molecule, the fold induction at 3000 µM in test [2] (setting [6]) came out at 0.95.

In the case of `OC[C@H]1O[C@@H](OCCCCc2ccc(OCC3CCC3)cc2)[C@H](O)[C@@H](O)[C@@H]1O` [TG-021], the fold induction at 1 µM in test [2] (setting [9]) was found to be 0.87. For the same molecule, in test [2] (setting [8]), the fold induction at 100 µM amounted to 2.69. The fold induction at 500 µM in test [2] (setting [3]) stood at 3.81. Also, in test [2] (setting [4]), the fold induction at 1000 µM is 4.24. The fold induction at 2000 µM in test [2] (setting [5]) turned out to be 9.2. The fold induction at 3000 µM in test [2] (setting [6]) is 7.96.

Consider `COc1ccc(COCCO[C@@H]2O[C@H](CO)[C@@H](O)[C@H](O)[C@H]2O)cc1` [TG-032], for which, in test [2] (RAW264.7, 3 h), the fold induction at 1 µM was determined as 2.79, the fold induction at 100 µM came out at 4.89, the fold induction at 500 µM worked out at 0.92 and the fold induction at 1000 µM came to 3.68. In addition, in test [2] (RAW264.7, 3 h), the fold induction at 2000 µM turned out to be 1.83 and the fold induction at 3000 µM came to 0.96.
